What all share (format): biochemical
In experiment [1] the target is T1, succinate-cytochrome c reductase (mitochondrial complexes II and III) (Echinococcus multilocularis, UniProt Q9TE80).
T1 construct: gene Cytb; coupled activity of native complexes II and III in freeze-thawed enriched mitochondrial fraction of protoscoleces; not purified; with Succinate dehydrogenase [ubiquinone] flavoprotein subunit, mitochondrial; Succinate dehydrogenase [ubiquinone] iron-sulfur subunit, mitochondrial; Succinate dehydrogenase [ubiquinone] cytochrome b large subunit, mitochondrial; Succinate dehydrogenase [ubiquinone] cytochrome b small subunit, mitochondrial
T1 sequence (Q9TE80 1-355): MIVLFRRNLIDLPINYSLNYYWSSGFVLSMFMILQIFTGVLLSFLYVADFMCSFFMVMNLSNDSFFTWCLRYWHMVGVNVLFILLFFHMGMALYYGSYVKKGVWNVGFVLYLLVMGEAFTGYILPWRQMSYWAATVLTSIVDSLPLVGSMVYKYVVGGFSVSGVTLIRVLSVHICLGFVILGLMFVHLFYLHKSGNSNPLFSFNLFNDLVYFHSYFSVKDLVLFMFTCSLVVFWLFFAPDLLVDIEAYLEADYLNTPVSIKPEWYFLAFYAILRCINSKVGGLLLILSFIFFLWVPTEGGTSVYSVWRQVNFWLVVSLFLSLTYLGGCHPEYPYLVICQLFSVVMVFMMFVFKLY
T1 sequence (Q9GP40 whole entry partner): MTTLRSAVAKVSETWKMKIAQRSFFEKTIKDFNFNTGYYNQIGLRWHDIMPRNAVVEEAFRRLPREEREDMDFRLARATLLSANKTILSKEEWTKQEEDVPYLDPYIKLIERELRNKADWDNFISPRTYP
T1 sequence (A0A1Z4EAV8 26-648 partner): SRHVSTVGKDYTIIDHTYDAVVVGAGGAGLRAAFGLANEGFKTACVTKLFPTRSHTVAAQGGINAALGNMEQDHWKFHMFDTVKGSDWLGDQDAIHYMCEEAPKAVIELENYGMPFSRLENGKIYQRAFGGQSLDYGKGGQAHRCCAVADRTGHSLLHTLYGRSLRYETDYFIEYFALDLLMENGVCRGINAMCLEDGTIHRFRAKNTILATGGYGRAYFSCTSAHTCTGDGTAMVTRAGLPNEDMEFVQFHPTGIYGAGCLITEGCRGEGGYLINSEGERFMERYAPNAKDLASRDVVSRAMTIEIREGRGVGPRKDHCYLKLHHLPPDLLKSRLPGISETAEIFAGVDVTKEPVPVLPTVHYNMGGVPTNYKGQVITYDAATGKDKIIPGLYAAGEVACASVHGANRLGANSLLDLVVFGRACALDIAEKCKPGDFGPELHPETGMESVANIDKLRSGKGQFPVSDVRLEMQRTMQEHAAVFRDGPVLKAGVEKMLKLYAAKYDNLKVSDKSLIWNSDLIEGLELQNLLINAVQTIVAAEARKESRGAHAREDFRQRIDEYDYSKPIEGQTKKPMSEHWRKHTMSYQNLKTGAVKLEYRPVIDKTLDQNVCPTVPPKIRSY
T1 sequence (A0A1Z4EAX0 21-272 partner): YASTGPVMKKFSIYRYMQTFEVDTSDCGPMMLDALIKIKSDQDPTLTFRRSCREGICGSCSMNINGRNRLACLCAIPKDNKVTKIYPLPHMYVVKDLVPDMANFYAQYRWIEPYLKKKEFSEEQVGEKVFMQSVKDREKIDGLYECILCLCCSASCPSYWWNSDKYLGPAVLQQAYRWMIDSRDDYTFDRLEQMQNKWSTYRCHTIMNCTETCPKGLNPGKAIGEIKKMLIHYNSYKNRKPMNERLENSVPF
T1 sequence (A0A1Z4EAX1 53-194 partner): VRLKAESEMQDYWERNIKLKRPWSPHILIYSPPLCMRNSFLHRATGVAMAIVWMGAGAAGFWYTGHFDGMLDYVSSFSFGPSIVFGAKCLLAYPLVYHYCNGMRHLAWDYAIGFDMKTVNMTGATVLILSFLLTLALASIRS
T1 sequence (A0A1Z4EAW8 47-153 partner): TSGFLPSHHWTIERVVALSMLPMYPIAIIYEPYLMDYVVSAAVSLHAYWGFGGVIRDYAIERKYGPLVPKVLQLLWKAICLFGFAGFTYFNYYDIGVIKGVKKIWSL
Kind of experiment: spectrophotometric succinate-cytochrome c reductase assay, mitochondrial fraction. To be noted: coupled complex II and III activity, 30 mM potassium phosphate, 1 mM MgCl2, pH 7.5, 25 °C. The source says:
spectrophotometric succinate-cytochrome c reductase assay, mitochondrial fraction on succinate-cytochrome c reductase (mitochondrial complexes II and III)

The target in experiment [2] is T2, mitochondrial complex II (succinate-quinone reductase, SQR) (Echinococcus multilocularis, UniProt A0A1Z4EAV8+A0A1Z4EAW8+A0A1Z4EAX0+A0A1Z4EAX1).
T2 construct: gene SDHB1; native complex II in freeze-thawed enriched mitochondrial fraction of protoscoleces; not purified
T2 sequence (A0A1Z4EAX0 21-272): as the sequence (A0A1Z4EAX0 21-272 partner) above
T2 sequence (A0A1Z4EAX1 53-194): as the sequence (A0A1Z4EAX1 53-194 partner) above
T2 sequence (A0A1Z4EAW8 47-153): as the sequence (A0A1Z4EAW8 47-153 partner) above
T2 sequence (A0A1Z4EAV8 26-648): as the sequence (A0A1Z4EAV8 26-648 partner) above
Description: spectrophotometric succinate-quinone reductase assay, mitochondrial fraction. The following applies: 30 mM potassium phosphate, 1 mM MgCl2, pH 7.5, 25 °C. The source says:
spectrophotometric succinate-quinone reductase assay, mitochondrial fraction on mitochondrial complex II (succinate-quinone reductase, SQR)

Experiment [3] concerns the target T3, mitochondrial complex I (NADH-ubiquinone reductase; NADH-decyl rhodoquinone reductase) (Echinococcus multilocularis, UniProt Q9TE76).
T3 construct: gene ND1; native multi-subunit complex I in freeze-thawed enriched mitochondrial fraction of protoscoleces; not purified
Description: spectrophotometric NADH-quinone reductase assay, mitochondrial fraction. To be noted: quinone acceptor decyl rhodoquinone (methods; table heads it NADH-ubiquinone reductase), 30 mM potassium phosphate, 1 mM MgCl2, pH 7.5, 25 °C. The source says:
spectrophotometric NADH-quinone reductase assay, mitochondrial fraction on mitochondrial complex I (NADH-ubiquinone reductase; NADH-decyl rhodoquinone reductase)

The mark [4] stands for this setting: read-out: NADH-ubiquinone reductase / (Complex I).
[5] abbreviates: read-out: Succinate-quinone reductase: SQR / (Complex II).

Structures are written as SMILES. Read-outs that look alike come from different tables or passages of the source. Bounds are passed on as bounds.

T3 sequence (Q9TE76 1-297): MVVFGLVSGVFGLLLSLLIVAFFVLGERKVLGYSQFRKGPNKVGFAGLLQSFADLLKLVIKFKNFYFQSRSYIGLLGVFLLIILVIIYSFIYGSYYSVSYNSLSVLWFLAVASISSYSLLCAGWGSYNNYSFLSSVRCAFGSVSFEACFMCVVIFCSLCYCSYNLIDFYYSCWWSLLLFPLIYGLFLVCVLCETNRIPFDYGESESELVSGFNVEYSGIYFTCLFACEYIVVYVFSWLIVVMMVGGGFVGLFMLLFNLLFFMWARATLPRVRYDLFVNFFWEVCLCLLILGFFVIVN
T3 sequence (A0A068Y9L9 30-218 partner): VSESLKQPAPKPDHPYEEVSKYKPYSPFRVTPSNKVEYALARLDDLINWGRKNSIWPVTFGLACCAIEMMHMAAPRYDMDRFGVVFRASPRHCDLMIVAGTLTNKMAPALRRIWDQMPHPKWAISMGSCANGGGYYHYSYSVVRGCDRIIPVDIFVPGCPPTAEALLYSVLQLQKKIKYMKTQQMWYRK
T3 sequence (A0A068YF50 31-207 partner): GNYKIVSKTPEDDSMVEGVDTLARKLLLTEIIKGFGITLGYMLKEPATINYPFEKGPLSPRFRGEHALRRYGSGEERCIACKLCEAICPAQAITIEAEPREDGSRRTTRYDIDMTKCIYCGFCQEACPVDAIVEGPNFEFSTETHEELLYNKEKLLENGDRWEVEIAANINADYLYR

Turning to `C[C@@H]1CC[C@H]2[C@@H](C)C(=O)O[C@@H]3O[C@@]4(C)CC[C@@H]1[C@]32OO4` [artemisinin], the IC50 in experiment [1] (setting [4]), in experiment [2] (setting [4]) and in experiment [3] was above 40 µM in each case.

In the case of `Cc1cc(/C=C/c2ccc3cc(N(C)C)ccc3[n+]2C)c(C)n1-c1ccccc1` [pyrvinium pamoate], the IC50 was above 30 µM in experiment [1] (setting [5]), above 30 µM in experiment [2] (setting [5]) and 11 ± 0.3 µM in experiment [3].
